Measured values published in patent publication US5482967A, “Condensed heterocyclic compounds, their production and use” (Takeda Chemical Industries, Ltd., priority 1992, dated 1996).
Structures can show the parent of a compound that is named as a salt.

Molecular target: substance P receptor (Homo sapiens, UniProt P25103)
Assay: Radioligand receptor binding inhibitory assay using receptor from human lymphoblast cells (IM-9), 125I-BHSP
Conditions: IM-9 receptor, 25° C., 30 minutes
Procedure: The method of A. Margaret et al. [Molecular Pharmacology 42, 458 (1992)] was modified and used. The receptor was prepared from human lymphoblast cells (IM-9). IM-9 cells were grown in 175 cm^2 tissue culture flasks (100 ml×10) at a density approximately 2×10^5 /ml of RPMI 1640 with L-glutamine, 10% (V/V) heat inactivated fetal calf serum, penicillin (100 u/ml), and streptomycin (100 μg/ml) at 37° C. in 5% CO2 /95% air for 3 days. IM-9 cells were obtained by centrifugation at 500×g for 5 minutes at 5° C. The pellet obtained was washed once with phosphate buffer (Flow Laboratories, CAT No. 28-103-05), homogenized using Polytron homogenizer (Kinematika, Germany) in 30 ml of 50 mM Tris-HCl buffer containing 120 mM NaCl, 5 mM KCl, 2 μg/ml phenylmethyl sulfonyl fluoride, and 1 mM ethylenediamine tetra-acetic acid and then centrifuged at 40,000×g for 20 minutes. The residue was washed twice with 30 ml of buffer described above, and preserved frozen (-80° C.).
The above specimen was suspended in a reaction buffer (50 mM Tris-HCl buffer (pH 7.4), 0.02% bovine serum albumin, 1 mM phenylmethylsulfonyl fluoride, 2 μg/ml chymostatin, 40 μg/ml bacitracin, 3 mM manganese chloride) at a protein concentration of 1.5 mg/ml and a 100 μl portion of the suspension was used in the reaction. After addition of the sample and 125I-BHSP (0.46 KBq), the reaction was conducted in 0.2 ml of reaction buffer at 25° C. for 30 minutes. The amount of nonspecific binding was determined by adding substance P at a final concentration of 2×10^-6 M. After the reaction, using a cell harvester (290PHD, Cambridge Technology, Inc., England), rapid filtration was carried out through a glass filter (GF/B, Whatman, U.S.A.) to stop the reaction. After washing three times with 250 μl of 50 mM Tris-HCl buffer (pH 7.4) containing 0.02% bovine serum albumin, the radioactivity remaining on the filter was measured with a gamma counter. Before use, the filter was immersed in 0.1% polyethyleneimine for 24 hours and air-dried.

Chain of substance P receptor (P25103 whole entry): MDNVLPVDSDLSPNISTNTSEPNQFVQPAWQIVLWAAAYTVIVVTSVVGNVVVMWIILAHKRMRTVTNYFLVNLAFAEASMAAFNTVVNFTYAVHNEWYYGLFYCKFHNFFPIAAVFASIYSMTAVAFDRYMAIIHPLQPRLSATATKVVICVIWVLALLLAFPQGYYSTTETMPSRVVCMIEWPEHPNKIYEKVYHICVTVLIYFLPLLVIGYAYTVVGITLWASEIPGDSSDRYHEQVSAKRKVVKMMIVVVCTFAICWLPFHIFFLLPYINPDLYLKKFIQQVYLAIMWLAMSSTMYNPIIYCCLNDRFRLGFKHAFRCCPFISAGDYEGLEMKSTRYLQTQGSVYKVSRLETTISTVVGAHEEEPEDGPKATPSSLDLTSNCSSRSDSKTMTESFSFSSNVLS

IC50 [nM]	SMILES
62	CCc1ccccc1-c1c(COCc2cc(C(F)(F)F)cc(C(F)(F)F)c2)n(C)c(=O)c2ccccc12 [Example 216, 3,5-Bis(trifluoromethyl)benzyl 4-(2-ethylphenyl)-1,2-dihydro-2-methyl-1-oxo-3-isoquinolinemethyl ether]
6.1	Cn1c(C(=O)NCc2cc(C(F)(F)F)cc(C(F)(F)F)c2)c(-c2ccccc2)c2ccccc2c1=O [Example 156, N-[3,5-Bis(trifluoromethyl)benzyl]-1,2-dihydro-2-methyl-1-oxo-4-phenyl-3-isoquinolinecarboxamide]
1.4	CCN(Cc1cc(C(F)(F)F)cc(C(F)(F)F)c1)C(=O)c1c(-c2ccccc2)c2ccccc2c(=O)n1C [Example 187, N-[3,5-Bis(trifluoromethyl)benzyl]-1,2-dihydro-N-ethyl-2-methyl-1-oxo-4-phenyl-3-isoquinolinecarboxamide]
2	O=C1c2c(-c3ccccc3)c3ccccc3c(=O)n2CCN1Cc1cc(C(F)(F)F)cc(C(F)(F)F)c1 [Example 240, N-[3,5-Bis(trifluoromethyl)benzyl]-1,2,3,4-tetrahydro-1,6-dioxo-11-phenyl-6H-pyrazino[1,2-b]isoquinoline]
13	CN(Cc1cc(C(F)(F)F)cc(C(F)(F)F)c1)C(=O)c1[nH]c(=O)c2ccc(Cl)cc2c1-c1ccccc1 [Example 177, N-[3,5-Bis(trifluoromethyl)benzyl]-6-chloro-1,2-dihydro-N-methyl-1-oxo-4-phenyl-3-isoquinolinecarboxamide]
1.6	COc1ccccc1-c1c(C(=O)N(C)Cc2cc(C(F)(F)F)cc(C(F)(F)F)c2)oc(=O)c2ccccc12 [Example 244, N-[3,5-Bis(trifluoromethyl)benzyl]-4-(2-methoxyphenyl)-N-methyl-1-oxo-1H-2-benzopyran-3-carboxamide]
28	Cc1cc(C)cc(CNCc2c(-c3ccccc3)c3cc(C)c(C)cc3c(=O)n2C)c1 [Example 191, N-(3,5-Dimethylbenzyl)-1,2-dihydro-2,6,7-trimethyl-1-oxo-4-phenyl-3-isoquinolinemethylamine]
50	COc1ccc(CNC(=O)c2c(-c3ccccc3)c3cc(C)c(C)cc3c(=O)n2C)cc1 [Example 109, 1,2-Dihydro-N-(4-methoxybenzyl)-2,6,7-trimethyl-1-oxo-4-phenyl-3-isoquinolinecarboxamide]
80	COc1ccccc1CNC1CCCn2c1c(-c1ccccc1)c1ccccc1c2=O (centres unmarked) [Example 239, 1,2,3,4-Tetrahydro-1-(2-methoxybenzylamino)-6-oxo-11-phenyl-6H-benzo[b]quinolizine]
36	CN(Cc1cc(C(F)(F)F)cc(C(F)(F)F)c1)C(=O)[C@@H]1OC(=O)c2ccccc2[C@@H]1c1ccccc1 (relative stereo) [Example 281, 3,4-cis-N-[3,5-Bis(trifluoromethyl)benzyl]-3,4-dihydro-N-methyl-1-oxo-4-phenyl-1H-2-benzopyran-3-carboxamide]
16	COc1ccccc1CN(C)C(=O)c1c(-c2ccccc2C)c2ccccc2c(=O)n1C [Example 104, 1,2-Dihydro-N-(2-methoxybenzyl)-N,2-dimethyl-4-(2-methylphenyl)-1-oxo-3-isoquinolinecarboxamide]
1.7	CCn1c(C(=O)N(C)Cc2cc(C(F)(F)F)cc(C(F)(F)F)c2)c(-c2ccccc2)c2ccccc2c1=O [Example 189, N-[3,5-Bis(trifluoromethyl)benzyl]-1,2-dihydro-2-ethyl-N-methyl-1-oxo-4-phenyl-3-isoquinolinecarboxamide]
30	Cc1ccccc1-c1c(COCc2cc(C(F)(F)F)cc(C(F)(F)F)c2)n(C)c(=O)c2ccccc12 [Example 212, 3,5-Bis(trifluoromethyl)benzyl 1,2-dihydro-2-methyl-4-(2-methylphenyl)-1-oxo-3-isoquinoline methyl ether]
140	Cc1cc(C)cc(COCc2c(-c3ccccc3)c3cc(C)c(C)cc3c(=O)n2C)c1 [Example 208, 1,2-Dihydro-2,6,7-trimethyl-1-oxo-4-phenyl-3-isoquinolinemethyl 3,5-dimethylbenzyl ether]
0.7	Cc1cc(F)ccc1-c1c(C(=O)N(C)Cc2cc(C(F)(F)F)cc(C(F)(F)F)c2)n(C)c(=O)c2ccccc12 [Example 176, N-[3,5-Bis(trifluoromethyl)benzyl]-4-(4-fluoro-2-methylphenyl)-1,2-dihydro-N,2-dimethyl-1-oxo-3-isoquinolinecarboxamide]
1.9	CNc1nc2ccccc2c(-c2ccccc2)c1C(=O)N(C)Cc1cc(C(F)(F)F)cc(C(F)(F)F)c1 [Example 271, N-[3,5-Bis(trifluoromethyl)benzyl]-N-methyl-2-methylamino-4-phenyl-3-quinolinecarboxamide]
8.4	Cc1cc2c(-c3ccccc3)c(C(=O)N(C)Cc3cc(C(F)(F)F)cc(C(F)(F)F)c3)n(C)c(=O)c2cc1C [Example 112, N-[3,5-Bis(trifluoromethyl)benzyl]-1,2-dihydro-N,2,6,7-tetramethyl-1-oxo-4-phenyl-3-isoquinolinecarboxamide]
0.35	CN(Cc1cc(C(F)(F)F)cc(C(F)(F)F)c1)C(=O)c1c(-c2ccc(F)cc2)c2ccccc2c(=O)n1C [Example 166, N-[3,5-Bis(trifluoromethyl)benzyl]-4-(4-fluorophenyl)-1,2-dihydro-N,2-dimethyl-1-oxo-3-isoquinolinecarboxamide]
88	COc1cccc(CNC(=O)c2c(-c3ccccc3)c3cc(C)c(C)cc3c(=O)n2C)c1 [Example 128, 1,2-Dihydro-N-(3-methoxybenzyl)-2,6,7-trimethyl-1-oxo-4-phenyl-3-isoquinolinecarboxamide]
90	COc1ccccc1CNC(=O)c1c(-c2ccccc2)c2cc(C)c(C)cc2c(=O)n1C [Example 110, 1,2-Dihydro-N-(2-methoxybenzyl)-2,6,7-trimethyl-1-oxo-4-phenyl-3-isoquinolinecarboxamide]
9.4	CN(Cc1cc(C(F)(F)F)cc(C(F)(F)F)c1)C(=O)c1c(-c2ccccc2)c2ccccc2c(=S)n1C [Example 285, N-[3,5-Bis(trifluoromethyl)benzyl]-1,2-dihydro-N,2-dimethyl-4-phenyl-1-thioxo-3-isoquinolinecarboxamide]
23	CSc1nc2ccccc2c(-c2ccccc2)c1C(=O)N(C)Cc1cc(C(F)(F)F)cc(C(F)(F)F)c1 [Example 272, N-[3,5-Bis(trifluoromethyl)benzyl]-N-methyl-2-methylthio-4-phenyl-3-quinolinecarboxamide]
2.5	Cc1ccccc1-c1c(C(=O)NCc2cc(C(F)(F)F)cc(C(F)(F)F)c2)n(C)c(=O)c2ccccc12 [Example 101, N-[3,5-Bis(trifluoromethyl)benzyl]-1,2-dihydro-2-methyl-4-(2-methylphenyl)-1-oxo-3-isoquinolinecarboxamide]
24	Cn1c(C(=O)NCc2cc(C(F)(F)F)cc(C(F)(F)F)c2)c(-c2ccc(F)cc2)c2ccccc2c1=O [Example 165, N-[3,5-Bis(trifluoromethyl)benzyl]-4-(4-fluorophenyl)-1,2-dihydro-2-methyl-1-oxo-3-isoquinolinecarboxamide]
82	Cc1cccc(C)c1-c1c(C(=O)NCc2cc(C(F)(F)F)cc(C(F)(F)F)c2)n(C)c(=O)c2ccccc12 [Example 122, N-[3,5-Bis(trifluoromethyl)benzyl]-1,2-dihydro-2-methyl-4-(2,6-dimethylphenyl)-1-oxo-3-isoquinolinecarboxamide]
2	CN(Cc1cc(C(F)(F)F)cc(C(F)(F)F)c1)C(=O)c1c(-c2ccccc2Cl)c2ccccc2n(C)c1=O [Example 262, N-[3,5-Bis(trifluoromethyl)benzyl]-4-(2-chlorophenyl)-1,2-dihydro-N,1-dimethyl-2-oxo-3-quinolinecarboxamide]
34	CN(Cc1cc(C(F)(F)F)cc(C(F)(F)F)c1)C(=O)[C@H]1[C@@H](c2ccccc2)c2ccccc2C(=O)N1C (relative stereo) [Example 279, 3,4-cis-N-[3,5-Bis(trifluoromethyl)benzyl]-1,2,3,4-tetrahydro-N-2-dimethyl-1-oxo-4-phenyl-3-isoquinolinecarboxamide]
0.61	CN(Cc1cc(C(F)(F)F)cc(C(F)(F)F)c1)C(=O)c1oc(=O)c2ccccc2c1-c1ccc(F)cc1 [Example 246, N-[3,5-Bis(trifluoromethyl)benzyl]-4-(4-fluorophenyl)-N-methyl-1-oxo-1H-2-benzopyran-3-carboxamide]
44	Cc1cc(C)cc(CNC2CCCn3c2c(-c2ccccc2)c2cc(C)c(C)cc2c3=O)c1 (centres unmarked) [Example 233, 1-(3,5-Dimethylbenzylamino)-1,2,3,4-tetrahydro-8,9-dimethyl-6-oxo-11-phenyl-6H-benzo[b]quinolizine hydrochloride]
